Test results published in US8377691B2 (priority 2006, dated 2013).
Entries after “also recorded” stand apart in the source; their conditions may differ.

Tested on: A/M2 VN1194
Type: biochemical

SMILES | H+ transport across VLP membranes (fluorescence)
NC12CC3CC(CC(C3)C1)C2 [amantadine] | exerted no effect; also recorded: did not, however, influence
CC(N)C12CC3CC(CC(C3)C1)C2 (centres unmarked) [rimantadine] | exerted no effect
